Reference: patent publication US20120083522A1, “MODULATION OF INFLAMMATORY RESPONSES BY FACTOR XI” (Isis Pharmaceuitcals, inc., priority 2009, published 2012)

Tests used:
[1] = Tolerability in Sprague-Dawley rats: kidney function (Example 19); assay type: in vivo; settings: Sprague Dawley rats; for urine protein/creatinine ratio, After: after 50 mg/kg s.c. twice per week for 6 weeks; for urine protein/creatinine ratio, Before: before antisense oligonucleotide treatment
Text: (§1) Urine samples were taken before the start of treatment.

human Factor XI mRNA [2] = experiment: Dose-dependent inhibition in HepG2 cells, lipofectin (Example 5); assay type: cell-based; settings: 16 hours
Experimental: (§2) Cells were plated at a density of 10,000 cells per well and transfected using lipofectin reagent with 2.34 nM, 4.69 nM, 9.375 nM, 18.75 nM, 37.5 nM, and 75 nM concentrations of antisense oligonucleotide, as specified in Table 11. After a treatment period of approximately 16 hours, RNA was isolated from the cells and human Factor XI mRNA levels were measured by quantitative real-time PCR. Human Factor XI primer probe set RTS 2966 was used to measure mRNA levels. Factor XI mRNA levels were adjusted according to total RNA content, as measured by RIBOGREEN®. Results are presented as percent inhibition of human Factor XI, relative to untreated control cells.

human Factor XI mRNA [3] = experiment: Dose-dependent inhibition in HepG2 cells, lipofectin (Example 4); assay type: cell-based; settings: 16 hours
How it was run: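 HepG2 cells at 10,000 per well were lipofectin-transfected with 9.375, 18.75, 37.5 or 75 nM antisense oligonucleotide for about 16 h. Factor XI mRNA was quantified by real-time PCR (primer probe set RTS 2966) and normalised to RIBOGREEN total RNA. Values are percent inhibition versus untreated cells.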

human Factor XI mRNA [4] = experiment: Dose-dependent inhibition in HepB3 cells, lipofectin (Example 7); assay type: cell-based; settings: approx. 16 h
Experimental: as §2, with “4,000” for “10,000”, “2.3” for “2.34”, “4.7” for “4.69”, “9.4” for “9.375”, “14.” for “11.”, “of” for “of human”

human Factor XI mRNA [5] = experiment: Dose-dependent inhibition in HepB3 cells, electroporation (Example 7); assay type: cell-based; settings: approx. 16 h
Experimental: The gapmers were also transfected via electroporation and their dose dependent inhibition of human Factor XI mRNA was measured. Cells were plated at a density of 20,000 cells per well and transfected via electroporation with 41.15 nM, 123.457 nM, 370.37 nM, 1111.11 nM, 3333.33 nM, and 10,000 nM concentrations of antisense oligonucleotide, as specified in Table 15. After a treatment period of approximately 16 hours, RNA was isolated from the cells and human Factor XI mRNA levels were measured by quantitative real-time PCR. Human Factor XI primer probe set RTS 2966 was used to measure mRNA levels. Factor XI mRNA levels were adjusted according to total RNA content, as measured by RIBOGREEN®. Results are presented as percent inhibition of human Factor XI, relative to untreated control cells.

human Factor XI mRNA [6] = experiment: Dose-dependent inhibition in cyno primary hepatocytes, electroporation (Example 6); assay type: cell-based, cynomolgus monkey; settings: approx. 16 h
Experimental: Cells were plated at a density of 35,000 cells per well and transfected via electroporation with 0.74 nM, 2.2 nM, 6.7 nM, 20 nM, 60 nM, and 180 nM concentrations of antisense oligonucleotide, as specified in Table 13. After a treatment period of approximately 16 hours, RNA was isolated from the cells and human Factor XI mRNA levels were measured by quantitative real-time PCR. Human Factor XI primer probe set RTS 2966 was used to measure mRNA levels. Factor XI mRNA levels were adjusted according to total RNA content, as measured by RIBOGREEN®. Results are presented as percent inhibition of human Factor XI, relative to untreated control cells.

human Factor XI mRNA [7] = experiment: Dose-dependent inhibition in HepG2 cells, electroporation (Example 5); assay type: cell-based; settings: approx. 16 h, relative to untreated control cells
Experimental: The gapmers were also transfected via electroporation and their dose dependent inhibition of human Factor XI mRNA was measured. Cells were plated at a density of 20,000 cells per well and transfected via electroporation with 625 nM, 1250 nM, 2500 nM, 5,000 nM, 10,000 nM, and 20,000 nM concentrations of antisense oligonucleotide, as specified in Table 12. After a treatment period of approximately 16 hours, RNA was isolated from the cells and human Factor XI mRNA levels were measured by quantitative real-time PCR. Human Factor XI primer probe set RTS 2966 was used to measure mRNA levels. Factor XI mRNA levels were adjusted according to total RNA content, as measured by RIBOGREEN®. Results are presented as percent inhibition of human Factor XI, relative to untreated control cells.

[8] = Tolerability in Sprague-Dawley rats: body and organ weight (Example 19); assay type: in vivo; settings: 50 mg/kg s.c. twice per week for 6 weeks, change over weight at start of study
Text: as §1
The body weights are presented in Table 78 and are expressed as a percent change over the weights taken at the start of the study.

human Factor XI mRNA [9] = experiment: Dose-dependent inhibition in HepG2 cells, electroporation (Example 4); assay type: cell-based; settings: 16 hours
How it was run: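 HepG2 cells electroporated with 0.7, 2.2, 6.7 or 20 μM antisense gapmer and harvested after ~16 h. Factor XI mRNA quantified by qRT-PCR (primer probe set RTS 2966), normalised to total RNA (RIBOGREEN). Reported as percent inhibition versus untreated control cells.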

416826 (antisense ATGCCCTTCATGTCTAGGTC; 5-10-5 gapmer, wing sugar chemistry not given here, further chemistry not given here) [compound 416826]
urine protein/creatinine ratio, After [1]: 11.4
urine protein/creatinine ratio, Before [1]: 1.0
percent inhibition of human Factor XI mRNA, relative to untreated control cells (human Factor XI mRNA [2]; 2.34 nM): 15%
percent inhibition of human Factor XI mRNA, relative to untreated control cells (human Factor XI mRNA [2]; 4.69 nM): 22%
percent inhibition of human Factor XI mRNA, relative to untreated control cells (human Factor XI mRNA [2]; 9.375 nM): 32%
percent inhibition of human Factor XI mRNA, relative to untreated control cells (human Factor XI mRNA [2]; 18.75 nM): 54%
percent inhibition of human Factor XI mRNA, relative to untreated control cells (human Factor XI mRNA [2]; 37.5 nM): 76%
percent inhibition of human Factor XI mRNA, relative to untreated control cells (human Factor XI mRNA [2]; 75 nM): 90%
percent inhibition of Factor XI mRNA, relative to untreated control cells (human Factor XI mRNA [3]; 9.375 nM): 8%
percent inhibition of Factor XI mRNA, relative to untreated control cells (human Factor XI mRNA [3]; 18.75 nM): 36%
percent inhibition of Factor XI mRNA, relative to untreated control cells (human Factor XI mRNA [3]; 37.5 nM): 58%
percent inhibition of Factor XI mRNA, relative to untreated control cells (human Factor XI mRNA [3]; 75 nM): 84%
percent inhibition of human Factor XI mRNA (human Factor XI mRNA [4]; 2.3 nM): 16%
percent inhibition of human Factor XI mRNA (human Factor XI mRNA [4]; 4.7 nM): 28%
percent inhibition of human Factor XI mRNA (human Factor XI mRNA [4]; 9.4 nM): 38%
percent inhibition of human Factor XI mRNA (human Factor XI mRNA [4]; 18.75 nM): 55%
percent inhibition of human Factor XI mRNA (human Factor XI mRNA [4]; 37.5 nM): 64%
percent inhibition of human Factor XI mRNA (human Factor XI mRNA [4]; 75 nM): 66%
percent inhibition of human Factor XI mRNA (human Factor XI mRNA [5]; 41.15 nM): 0%
percent inhibition of human Factor XI mRNA (human Factor XI mRNA [5]; 123.457 nM): 0%
percent inhibition of human Factor XI mRNA (human Factor XI mRNA [5]; 370.37 nM): 34%
percent inhibition of human Factor XI mRNA (human Factor XI mRNA [5]; 1111.11 nM): 61%
percent inhibition of human Factor XI mRNA (human Factor XI mRNA [5]; 3333.33 nM): 87%
percent inhibition of human Factor XI mRNA (human Factor XI mRNA [5]; 10000 nM): 92%
percent inhibition of human Factor XI mRNA (human Factor XI mRNA [6]; 0.74 nM): 13%
percent inhibition of human Factor XI mRNA (human Factor XI mRNA [6]; 2.2 nM): 24%
percent inhibition of human Factor XI mRNA (human Factor XI mRNA [6]; 6.7 nM): 34%
percent inhibition of human Factor XI mRNA (human Factor XI mRNA [6]; 20 nM): 67%
percent inhibition of human Factor XI mRNA (human Factor XI mRNA [6]; 60 nM): 69%
percent inhibition of human Factor XI mRNA (human Factor XI mRNA [6]; 180 nM): 71%
percent inhibition of human Factor XI mRNA (human Factor XI mRNA [7]; 625 nM): 67%
percent inhibition of human Factor XI mRNA (human Factor XI mRNA [7]; 1250 nM): 82%
percent inhibition of human Factor XI mRNA (human Factor XI mRNA [7]; 2500 nM): 89%
percent inhibition of human Factor XI mRNA (human Factor XI mRNA [7]; 5000 nM): 92%
percent inhibition of human Factor XI mRNA (human Factor XI mRNA [7]; 10000 nM): 95%
percent inhibition of human Factor XI mRNA (human Factor XI mRNA [7]; 20000 nM): 97%
Percent change in Body weight [8]: −40%
percent inhibition of Factor XI mRNA, relative to untreated control cells (human Factor XI mRNA [9]; 0.7 μM): 2%
percent inhibition of Factor XI mRNA, relative to untreated control cells (human Factor XI mRNA [9]; 2.2 μM): 47%
percent inhibition of Factor XI mRNA, relative to untreated control cells (human Factor XI mRNA [9]; 6.7 μM): 86%
percent inhibition of Factor XI mRNA, relative to untreated control cells (human Factor XI mRNA [9]; 20 μM): 82%

416892 (antisense GCCCTTCATGTCTAGGTCCA; 3-14-3 chimeric gapmer, wing sugar chemistry not given here, further chemistry not given here) [compound 416892]
urine protein/creatinine ratio, After [1]: 21.3
urine protein/creatinine ratio, Before [1]: 0.8
percent inhibition of human Factor XI mRNA, relative to untreated control cells (human Factor XI mRNA [2]; 2.34 nM): 14%
percent inhibition of human Factor XI mRNA, relative to untreated control cells (human Factor XI mRNA [2]; 4.69 nM): 34%
percent inhibition of human Factor XI mRNA, relative to untreated control cells (human Factor XI mRNA [2]; 9.375 nM): 49%
percent inhibition of human Factor XI mRNA, relative to untreated control cells (human Factor XI mRNA [2]; 18.75 nM): 70%
percent inhibition of human Factor XI mRNA, relative to untreated control cells (human Factor XI mRNA [2]; 37.5 nM): 84%
percent inhibition of human Factor XI mRNA, relative to untreated control cells (human Factor XI mRNA [2]; 75 nM): 93%
percent inhibition of Factor XI mRNA, relative to untreated control cells (human Factor XI mRNA [3]; 9.375 nM): 16%
percent inhibition of Factor XI mRNA, relative to untreated control cells (human Factor XI mRNA [3]; 18.75 nM): 50%
percent inhibition of Factor XI mRNA, relative to untreated control cells (human Factor XI mRNA [3]; 37.5 nM): 70%
percent inhibition of Factor XI mRNA, relative to untreated control cells (human Factor XI mRNA [3]; 75 nM): 85%
percent inhibition of human Factor XI mRNA (human Factor XI mRNA [4]; 2.3 nM): 28%
percent inhibition of human Factor XI mRNA (human Factor XI mRNA [4]; 4.7 nM): 34%
percent inhibition of human Factor XI mRNA (human Factor XI mRNA [4]; 9.4 nM): 50%
percent inhibition of human Factor XI mRNA (human Factor XI mRNA [4]; 18.75 nM): 68%
percent inhibition of human Factor XI mRNA (human Factor XI mRNA [4]; 37.5 nM): 82%
percent inhibition of human Factor XI mRNA (human Factor XI mRNA [4]; 75 nM): 72%
percent inhibition of human Factor XI mRNA (human Factor XI mRNA [5]; 41.15 nM): 9%
percent inhibition of human Factor XI mRNA (human Factor XI mRNA [5]; 123.457 nM): 12%
percent inhibition of human Factor XI mRNA (human Factor XI mRNA [5]; 370.37 nM): 28%
percent inhibition of human Factor XI mRNA (human Factor XI mRNA [5]; 1111.11 nM): 65%
percent inhibition of human Factor XI mRNA (human Factor XI mRNA [5]; 3333.33 nM): 89%
percent inhibition of human Factor XI mRNA (human Factor XI mRNA [5]; 10000 nM): 98%
percent inhibition of human Factor XI mRNA (human Factor XI mRNA [6]; 0.74 nM): 20%
percent inhibition of human Factor XI mRNA (human Factor XI mRNA [6]; 2.2 nM): 20%
percent inhibition of human Factor XI mRNA (human Factor XI mRNA [6]; 6.7 nM): 43%
percent inhibition of human Factor XI mRNA (human Factor XI mRNA [6]; 20 nM): 62%
percent inhibition of human Factor XI mRNA (human Factor XI mRNA [6]; 60 nM): 88%
percent inhibition of human Factor XI mRNA (human Factor XI mRNA [6]; 180 nM): 92%
percent inhibition of human Factor XI mRNA (human Factor XI mRNA [7]; 625 nM): 66%
percent inhibition of human Factor XI mRNA (human Factor XI mRNA [7]; 1250 nM): 86%
percent inhibition of human Factor XI mRNA (human Factor XI mRNA [7]; 2500 nM): 96%
percent inhibition of human Factor XI mRNA (human Factor XI mRNA [7]; 5000 nM): 97%
percent inhibition of human Factor XI mRNA (human Factor XI mRNA [7]; 10000 nM): 100%
percent inhibition of human Factor XI mRNA (human Factor XI mRNA [7]; 20000 nM): 100%
Percent change in Body weight [8]: −39%
percent inhibition of Factor XI mRNA, relative to untreated control cells (human Factor XI mRNA [9]; 0.7 μM): 14%
percent inhibition of Factor XI mRNA, relative to untreated control cells (human Factor XI mRNA [9]; 2.2 μM): 52%
percent inhibition of Factor XI mRNA, relative to untreated control cells (human Factor XI mRNA [9]; 6.7 μM): 82%
percent inhibition of Factor XI mRNA, relative to untreated control cells (human Factor XI mRNA [9]; 20 μM): 92%
